ChEMBL document CHEMBL1201862, “PubChem BioAssay data set” (2004)
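Assay format: 96-well plates, 48-hour exposure. GI50 = concentration required for 50% inhibition of growth.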 Activity calls are given as the source filed them. Cut-off read from the data, not from the text of the source: active = GI50 up to about 1.1 µM and inactive = higher.

Assays:
Test in all cases: NCI-60 cell line screen, 48 h
MDA-MB-435 = test system: MDA-MB-435
UACC-62 = test system: UACC-62
OVCAR-8 = test system: OVCAR-8
Malme-3M = test system: Malme-3M
OVCAR-3 = test system: OVCAR-3
SNB-75 = test system: SNB-75
SF-295 = test system: SF-295
ACHN = test system: ACHN
LXFL 529 = test system: LXFL 529
UACC-257 = test system: UACC-257
T47D = test system: T47D
RXF 393 = test system: RXF 393
DU-145 = test system: DU-145
Hs-578T = test system: Hs-578T
HCT-15 = test system: HCT-15
SK-MEL-2 = test system: SK-MEL-2
EKVX = test system: EKVX
M19-MEL = test system: M19-MEL
K562 = test system: K562
SNB-78 = test system: SNB-78

C/C(=N\NC(=S)N1CCN(c2ccccn2)CC1)c1ccccn1
GI50 (MDA-MB-435): 111 nM (active)
GI50 (UACC-62): 6.46 nM (active)
GI50 (OVCAR-8): 2.81 nM (active)
GI50 (Malme-3M): 224 nM (active)
GI50 (OVCAR-3): 3.27 nM (active)
GI50 (SNB-75): 3230 nM (inactive)
GI50 (SF-295): 5.32 nM (active)
GI50 (ACHN): < 23.9 nM (active)
GI50 (LXFL 529): 0.342 nM (active)
GI50 (UACC-257): 1.35 nM (active)
GI50 (T47D): 107 nM (active)
GI50 (RXF 393): 400 nM (active)
GI50 (DU-145): 1080 nM (active)
GI50 (Hs-578T): 129 nM (active)
GI50 (HCT-15): 21.9 nM
GI50 (SK-MEL-2): 1250 nM (inactive)
GI50 (EKVX): < 15.4 nM (active)
GI50 (M19-MEL): 1010 nM (active)
GI50 (K562): 2.96 nM (active)
GI50 (SNB-78): 5380 nM (inactive)
